What follows are molecules tested on MOLM-13 cells (assay: MOLM-13 Cell Proliferation Assay (indicator of DHODH inhibition)). Conditions: Homo sapiens, 72 Hours of culture, CellTiter-Glo, no uridine.
Assay type: cell-based
In short: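 Proliferation readout via CellTiter-Glo luminescence after 72 h compound treatment (37 °C, 5% CO2, 0.5% DMSO) of MOLM-13 cells seeded at 10^4 per well in RPMI 1640/10% FBS, used as a DHODH-inhibition indicator since these cells rely on de novo pyrimidine synthesis.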
`FC(F)(F)c1nc(N2CCc3c([nH]c4ccc(-n5nccn5)cc34)[C@@H]2c2ccc(N3CCOCC3)nc2)nc(C(F)(F)F)n1` [Compound 486, (1S)-2-[4,6-bis(trifluoromethyl)-1,3,5-triazin-2-yl]-1-[6-(morpholin-4-yl)pyridin-3-yl]-6-(2H-1,2,3-triazol-2-yl)-2,3,4,9-tetrahydro-1H-pyrido[3,4-b]indole] showed an IC50 of 0.4 nM. Molecule `Cc1ccc(C2c3[nH]c4c(N)cc(Cl)cc4c3CCN2c2nc(C)nc(C)n2)cc1` (stereo not drawn) [Compound 292, 6-chloro-2-(4,6-dimethyl-1,3,5-triazin-2-yl)-1-(4-methylphenyl)-2,3,4,9-tetrahydro-1H-pyrido[3,4-b]indol-8-amine] has an IC50 of 12.1 nM. With `CN(C)c1ccc(C2c3[nH]c4ccc(Cl)c(F)c4c3CCN2c2nccc(C(F)(F)F)n2)c(F)n1` (stereo not drawn) [Compound 210, 5-{6-chloro-5-fluoro-2-[4-(trifluoromethyl)pyrimidin-2-yl]-2,3,4,9-tetrahydro-1H-pyrido[3,4-b]indol-1-yl}-6-fluoro-N,N-dimethylpyridin-2-amine] the IC50 was 1.9 nM. With `Cc1ccc(C2c3[nH]c4ccc(Cl)cc4c3CCN2c2nccc(N(C)C)n2)c(F)c1F` (stereo not drawn) [Compound 306, 2-[6-chloro-1-(2,3-difluoro-4-methylphenyl)-1,3,4,9-tetrahydro-2H-pyrido[3,4-b]indol-2-yl]-N,N-dimethylpyrimidin-4-amine] the IC50 was 20 nM. With `N#Cc1ccc(C2c3[nH]c4ccc(Cl)c(F)c4c3CCN2c2ncc(F)cn2)cc1` (stereo not drawn) [Compound 56, 4-[6-chloro-5-fluoro-2-(5-fluoropyrimidin-2-yl)-2,3,4,9-tetrahydro-1H-pyrido[3,4-b]indol-1-yl]benzonitrile] the IC50 was 25.7 nM. `Oc1cc(C2c3[nH]c4ccc(Cl)cc4c3CCN2c2nccc(C(F)(F)F)n2)ccc1Cl` (stereo not drawn) [Compound 218, 2-chloro-5-{6-chloro-2-[4-(trifluoromethyl)pyrimidin-2-yl]-2,3,4,9-tetrahydro-1H-pyrido[3,4-b]indol-1-yl}phenol] gave an IC50 of 6.1 nM. `Cc1nc(C)nc(N2CCc3c([nH]c4ccc(Cl)cc34)C2c2ccc(Br)c(F)c2F)n1` (stereo not drawn) [Compound 283, 1-(4-bromo-2,3-difluorophenyl)-6-chloro-2-(4,6-dimethyl-1,3,5-triazin-2-yl)-2,3,4,9-tetrahydro-1H-pyrido[3,4-b]indole] showed an IC50 of 0.6 nM. With `Cc1ccc([C@H]2c3[nH]c4ccc(Cl)cc4c3CCN2c2nc(C)c(F)c(C#N)n2)c(F)c1F` [Compound 413, 2-[(1S)-6-chloro-1-(2,3-difluoro-4-methylphenyl)-1,3,4,9-tetrahydro-2H-pyrido[3,4-b]indol-2-yl]-5-fluoro-6-methylpyrimidine-4-carbonitrile] the IC50 was 0.8 nM. In the case of `Cc1ccc(C2c3[nH]c4cc(F)c(Cl)cc4c3CCN2c2ncc(C(F)(F)F)cn2)c(F)c1F` (stereo not drawn) [Compound 142, 6-chloro-1-(2,3-difluoro-4-methylphenyl)-7-fluoro-2-[5-(trifluoromethyl)pyrimidin-2-yl]-2,3,4,9-tetrahydro-1H-pyrido[3,4-b]indole], the IC50 is reported as 4.3 nM. `FC(F)(F)c1ccnc(N2CCc3c([nH]c4ccc(Cl)c(Br)c34)C2c2ccc(Cl)cc2)n1` (stereo not drawn) [Compound 247, 5-bromo-6-chloro-1-(4-chlorophenyl)-2-[4-(trifluoromethyl)pyrimidin-2-yl]-2,3,4,9-tetrahydro-1H-pyrido[3,4-b]indole] was tested, and the IC50 was 1.8 nM. For `FC(F)(F)c1cnnc(N2CCc3c([nH]c4ccc(Cl)cc34)C2c2cnc(N3CCOCC3)nc2)n1` (stereo not drawn) [Compound 383, 6-chloro-1-[2-(morpholin-4-yl)pyrimidin-5-yl]-2-[5-(trifluoromethyl)-1,2,4-triazin-3-yl]-2,3,4,9-tetrahydro-1H-pyrido[3,4-b]indole], the IC50 was 1.6 nM. `FC(F)(F)c1nc(N2CCOCC2)nc(N2CCc3c([nH]c4ccc(Cl)cc34)[C@@H]2c2ccc(N3CCOCC3)nc2)n1` [Compound 446, (1S)-6-chloro-1-[6-(morpholin-4-yl)pyridin-3-yl]-2-[4-(morpholin-4-yl)-6-(trifluoromethyl)-1,3,5-triazin-2-yl]-2,3,4,9-tetrahydro-1H-pyrido[3,4-b]indole] showed an IC50 of 2.7 nM. In the case of `Cc1cc(Cl)nc(N2CCc3c([nH]c4cc(F)c(Cl)cc34)C2c2ccc(F)cc2)n1` (stereo not drawn) [Compound 46, 6-chloro-2-(4-chloro-6-methylpyrimidin-2-yl)-7-fluoro-1-(4-fluorophenyl)-2,3,4,9-tetrahydro-1H-pyrido[3,4-b]indole], the IC50 is reported as 6.5 nM. In the case of `OCCOCc1ccc(C2c3[nH]c4cc(F)c(Cl)cc4c3CCN2c2nccc(C(F)(F)F)n2)cc1` (stereo not drawn) [Compound 223, 2-[(4-{6-chloro-7-fluoro-2-[4-(trifluoromethyl)pyrimidin-2-yl]-2,3,4,9-tetrahydro-1H-pyrido[3,4-b]indol-1-yl}phenyl)methoxy]ethan-1-ol], the IC50 is reported as 2 nM. `Fc1c(Cl)ccc2[nH]c3c(c12)CCN(c1nccc(C(F)(F)F)n1)C3c1ccc(Cl)cc1` (stereo not drawn) [Compound 73, 6-chloro-1-(4-chlorophenyl)-5-fluoro-2-[4-(trifluoromethyl)pyrimidin-2-yl]-2,3,4,9-tetrahydro-1H-pyrido[3,4-b]indole] gave an IC50 of 4.1 nM. In the case of `Fc1ccc(C2c3[nH]c4ccc(Cl)cc4c3CCN2c2nccc(Cl)n2)cc1` (stereo not drawn) [Compound 13, 6-chloro-2-(4-chloropyrimidin-2-yl)-1-(4-fluorophenyl)-2,3,4,9-tetrahydro-1H-pyrido[3,4-b]indole], the IC50 is reported as 12.4 nM. `Fc1ccc(C2c3[nH]c4cc(F)c(Cl)cc4c3CCN2c2ncc(Cl)cn2)cc1` (stereo not drawn) [Compound 4, 6-chloro-2-(5-chloropyrimidin-2-yl)-7-fluoro-1-(4-fluorophenyl)-2,3,4,9-tetrahydro-1H-pyrido[3,4-b]indole] gave an IC50 of 59.7 nM. `Cc1ccc([C@H]2c3[nH]c4ccc(Cl)cc4c3CCN2c2ncc(F)cn2)cc1` [Compound 393, (1S)-6-chloro-2-(5-fluoropyrimidin-2-yl)-1-(4-methylphenyl)-2,3,4,9-tetrahydro-1H-pyrido[3,4-b]indole] showed an IC50 of 12.7 nM. Molecule `Fc1cc2[nH]c3c(c2cc1Cl)CCN(c1ncc(Cl)cn1)C3c1ccc(C(F)(F)F)cc1` (stereo not drawn) [Compound 80, 6-chloro-2-(5-chloropyrimidin-2-yl)-7-fluoro-1-[4-(trifluoromethyl)phenyl]-2,3,4,9-tetrahydro-1H-pyrido[3,4-b]indole] has an IC50 of 31 nM. `Cc1ccc(C2c3[nH]c4ccc(F)c(F)c4c3CCN2c2ncc(F)cn2)cc1` (stereo not drawn) [Compound 82, 5,6-difluoro-2-(5-fluoropyrimidin-2-yl)-1-(4-methylphenyl)-2,3,4,9-tetrahydro-1H-pyrido[3,4-b]indole] showed an IC50 of 86.5 nM. `CN1CCN(c2ncc([C@H]3c4[nH]c5ccc(-n6nccn6)cc5c4CCN3c3nc(C(F)(F)F)cc(C(F)(F)F)n3)cn2)CC1` [Compound 500, (1S)-2-[4,6-bis(trifluoromethyl)pyrimidin-2-yl]-1-[2-(4-methylpiperazin-1-yl)pyrimidin-5-yl]-6-(2H-1,2,3-triazol-2-yl)-2,3,4,9-tetrahydro-1H-pyrido[3,4-b]indole] was tested, and the IC50 was 0.8 nM. `Cc1ccc([C@H]2c3[nH]c4ccc(Cl)cc4c3CCN2c2nc(CF)nc(C(F)(F)F)n2)c(F)c1F` [Compound 526, (1S)-6-chloro-1-(2,3-difluoro-4-methylphenyl)-2-[4-(fluoromethyl)-6-(trifluoromethyl)-1,3,5-triazin-2-yl]-2,3,4,9-tetrahydro-1H-pyrido[3,4-b]indole] was tested, and the IC50 was 0.5 nM. `CN1CCN(c2ncc([C@H]3c4[nH]c5ccc(Cl)cc5c4CCN3c3ncnc(C(F)(F)F)n3)cn2)CC1` [Compound 488, (1S)-6-chloro-1-[2-(4-methylpiperazin-1-yl)pyrimidin-5-yl]-2-[4-(trifluoromethyl)-1,3,5-triazin-2-yl]-2,3,4,9-tetrahydro-1H-pyrido[3,4-b]indole] showed an IC50 of 5.3 nM. Molecule `Cc1ccc(C2c3[nH]c4cc(F)c(Cl)cc4c3CCN2c2nccc(C(F)(F)F)n2)c(F)c1F` (stereo not drawn) [Compound 140, 6-chloro-1-(2,3-difluoro-4-methylphenyl)-7-fluoro-2-[4-(trifluoromethyl)pyrimidin-2-yl]-2,3,4,9-tetrahydro-1H-pyrido[3,4-b]indole] has an IC50 of 1 nM. `COc1ncc([C@H]2c3[nH]c4ccc(Cl)cc4c3CCN2c2nc(C(F)(F)F)nc(C(F)(F)F)n2)cn1` [Compound 522, (1S)-2-[4,6-bis(trifluoromethyl)-1,3,5-triazin-2-yl]-6-chloro-1-(2-methoxypyrimidin-5-yl)-2,3,4,9-tetrahydro-1H-pyrido[3,4-b]indole] was tested, and the IC50 was 0.7 nM. Molecule `Cc1nc(N2CCc3c([nH]c4ccc(Cl)cc34)C2c2ccc(N3CCOCC3)nc2)nc(C(F)(F)F)n1` (stereo not drawn) [Compound 439, 6-chloro-2-[4-methyl-6-(trifluoromethyl)-1,3,5-triazin-2-yl]-1-[6-(morpholin-4-yl)pyridin-3-yl]-2,3,4,9-tetrahydro-1H-pyrido[3,4-b]indole] has an IC50 of 1.9 nM. For `Cc1ccc([C@H]2c3[nH]c4ccc(Cl)cc4c3CCN2c2nc(N3CCN(C)CC3)nc(C(F)(F)F)n2)c(F)c1F` [Compound 477, (1S)-6-chloro-1-(2,3-difluoro-4-methylphenyl)-2-[4-(4-methylpiperazin-1-yl)-6-(trifluoromethyl)-1,3,5-triazin-2-yl]-2,3,4,9-tetrahydro-1H-pyrido[3,4-b]indole], the IC50 was 1.1 nM. In the case of `N#Cc1ccc(C2c3[nH]c4cc(F)c(Cl)cc4c3CCN2c2nc(C(F)(F)F)cc(C(F)(F)F)n2)cc1` (stereo not drawn) [Compound 188, 4-{2-[4,6-bis(trifluoromethyl)pyrimidin-2-yl]-6-chloro-7-fluoro-2,3,4,9-tetrahydro-1H-pyrido[3,4-b]indol-1-yl}benzonitrile], the IC50 is reported as 0.6 nM. In the case of `Cc1ccc([C@@H]2c3[nH]c4ccc(Cl)cc4c3CCN2c2nccc(C(F)(F)F)n2)c(F)c1F` [Compound 180, (1R)-6-chloro-1-(2,3-difluoro-4-methylphenyl)-2-[4-(trifluoromethyl)pyrimidin-2-yl]-2,3,4,9-tetrahydro-1H-pyrido[3,4-b]indole], the IC50 is reported as 11.3 nM. For `CN(C)c1ncnc(N2CCc3c([nH]c4ccc(Cl)cc34)C2c2cnc(N3CCOCC3)nc2)n1` (stereo not drawn) [Compound 297, 4-{6-chloro-1-[2-(morpholin-4-yl)pyrimidin-5-yl]-1,3,4,9-tetrahydro-2H-pyrido[3,4-b]indol-2-yl}-N,N-dimethyl-1,3,5-triazin-2-amine], the IC50 was 78 nM.

— patent US20250186437A1, “CARBOLINE COMPOUNDS AND USE THEREOF” (PTC Therapeutics, Inc., priority 2021, published 2025)
